Results reported in patent US10221174B2, “N-(phenylsulfonyl)benzamides and related compounds as BCL-2 inhibitors” (THE REGENTS OF THE UNIVERSITY OF MICHIGAN, priority 2016, dated 2019).
Like-named read-outs stand apart in the source and are kept apart here.

What was measured:
[1] = target: Bcl-xL (Homo sapiens (Human), UniProt Q07817); assay: Fluorescence polarization competitive binding assay, Bcl-xL; conditions: FP competition, 10 nM Bcl-xL, 2 nM Flu-BAK probe; read-out: Inhibitory activity IC50 Bcl-xL
Bcl-xL, sequence (Q07817 whole entry): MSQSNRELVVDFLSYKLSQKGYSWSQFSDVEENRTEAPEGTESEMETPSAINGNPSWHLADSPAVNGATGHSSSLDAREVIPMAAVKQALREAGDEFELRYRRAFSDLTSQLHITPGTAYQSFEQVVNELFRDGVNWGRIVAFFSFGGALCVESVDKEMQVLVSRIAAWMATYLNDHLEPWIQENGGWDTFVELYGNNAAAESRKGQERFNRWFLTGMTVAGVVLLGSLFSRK
Procedure: (§1) Fluorescence polarization values were measured using the Infinite M-1000 plate reader (Tecan U.S., Research Triangle Park, N.C.) in Microfluor 1 96-well, black, round-bottom plates (Thermo Scientific). […] Plates were mixed and incubated at room temperature for 1 hour with gentle shaking to assure equilibrium. […] Equilibrium dissociation constants (Kd) were then calculated by fitting the sigmoidal dose-dependent FP increases as a function of protein concentrations using Graphpad Prism 5.0 software (Graphpad Software, San Diego, Calif.).
(§2) Mixtures of 5 μl of the tested inhibitors in DMSO and 120 μl of pre-incubated protein/probe complexes in the assay buffer were added into assay plates and incubated at room temperature for 2 hours with gentle shaking. […] FP values were measured as described above. IC50 values were determined by nonlinear regression fitting of the competition curves.

[2] = tested on: RS4;11 cells; assay: RS4;11 cell viability, CCK-8 assay; assay type: cell-based; conditions: Homo sapiens, RS4-11, 96 h, CCK-8, 4 days, read-out: RS4, 11 IC50 (Bcl-2 dependent)
Procedure: RS4;11 cells were obtained from American Type Culture Collection (ATCC). They were used within three months of thawing fresh vials. Cells were maintained in the recommended culture medium with 10% FBS at 37° C. and an atmosphere of 5% CO2.
The effect of representative Compounds of the Disclosure on cell viability was determined using Cell Counting Kit-8 (CCK-8) assay (Dojindo, Rockville, Md.) according to the manufacturer's instructions. 200 μL of a RS4;11 cell suspension (10000 cells/well) in culture medium were seeded into 96-well plates and cultured overnight. Each tested compound was serially diluted in culture medium, and 20 μL of the compound dilution was added to the corresponding well of the cell plate. After the addition of the tested compound, the cells were incubated at 37° C. in an atmosphere of 5% CO2 for 4 days. At the end of 4 days, 10 μL of CCK-8 solution was added to each well of the plate and incubated for 1-4 hours. The plates were read at 450 nm on the microplate spectrophotometer (Epoch2, BioTek). The readings were normalized to the vehicle cells, and the IC50 was calculated by nonlinear regression analysis using GraphPad Prism 5 software.

[3] = target: Bcl-2 (Homo sapiens (Human), UniProt P10415)
Bcl-2, sequence (P10415 whole entry): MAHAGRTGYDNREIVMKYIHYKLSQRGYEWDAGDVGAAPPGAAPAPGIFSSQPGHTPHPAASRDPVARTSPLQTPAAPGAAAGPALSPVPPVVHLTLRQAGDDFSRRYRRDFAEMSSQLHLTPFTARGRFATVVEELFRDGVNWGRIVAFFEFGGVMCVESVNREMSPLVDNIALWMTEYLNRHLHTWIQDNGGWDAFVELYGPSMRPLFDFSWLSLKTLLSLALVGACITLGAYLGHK
Procedure: as §1, §2

[4] = tested on: MV4;11 cell line; assay: MV4;11 inhibition; assay type: cell-based

With `O=C(NS(=O)(=O)c1cccc([N+](=O)[O-])c1)c1ccc(N2CCN(CC3=C(c4ccc(Cl)cc4)CC4(CCC4)CC3)CC2)cc1Oc1cnc2[nH]ccc2c1` [Cpd. No. 4, 2-((1H-pyrrolo[2,3-b]pyridin-5-yl)oxy)-4-(4-((6-(4-chlorophenyl)spiro[3.5]non-6-en-7-yl)methyl)piperazin-1-yl)-N-((3-nitrophenyl)sulfonyl)benzamide] the IC50 [1] was 0.0086 µM, the IC50 [2] was 0.427 µM and the IC50 [3] was 0.0031 µM.

Work on `O=C(NS(=O)(=O)c1ccc(NCC2CCOCC2)c([N+](=O)[O-])c1)c1ccc(C2=CCN(CC3=C(c4ccc(Cl)cc4)CC4(CCC4)CC3)CC2)cc1Oc1cnc2[nH]ccc2c1` [compound 7, 2-((1H-pyrrolo[2,3-b]pyridin-5-yl)oxy)-4-(1-((6-(4-chlorophenyl)spiro[3.5]non-6-en-7-yl)methyl)-1,2,3,6-tetrahydropyridin-4-yl)-N-((3-nitro-4-(((tetrahydro-2H-pyran-4-yl)methyl)amino)phenyl)sulfonyl)benzamide] yielded an IC50 [1] of 0.0157 µM and an IC50 [2] of 0.035 µM.

For `O=C(NS(=O)(=O)c1cc(F)c(NCC2CCOCC2)c([N+](=O)[O-])c1)c1ccc(N2CCN(CC3=C(c4ccc(Cl)cc4)CC4(CCC4)CC3)CC2)cc1Oc1cnc2[nH]ccc2c1` [compound 29, 2-((1H-pyrrolo[2,3-b]pyridin-5-yl)oxy)-4-(4-((6-(4-chlorophenyl)spiro[3.5]non-6-en-7-yl)methyl)piperazin-1-yl)-N-((3-fluoro-5-nitro-4-(((tetrahydro-2H-pyran-4-yl)methyl)amino)phenyl)sulfonyl)benzamide], the IC50 [2] was 0.012 µM and the IC50 ([4]; Homo sapiens, MV4-11) was 0.0482 µM.

With `O=C(NS(=O)(=O)c1ccc(NCC2CCOCC2)c([N+](=O)[O-])c1)c1ncc(N2CCN(CC3=C(c4ccc(Cl)cc4)CC4(CCC4)CC3)CC2)cc1Oc1cnc2[nH]ccc2c1` [compound 30, 3-((1H-pyrrolo[2,3-b]pyridin-5-yl)oxy)-5-(4-((6-(4-chlorophenyl)spiro[3.5]non-6-en-7-yl)methyl)piperazin-1-yl)-N-((3-nitro-4-(((tetrahydro-2H-pyran-4-yl)methyl)amino)phenyl)sulfonyl)picolinamide] the IC50 [2] was 0.019 µM and the IC50 ([4]; Homo sapiens, MV4-11) was 0.0225 µM.

With `COCCOCCNc1ccc(S(=O)(=O)NC(=O)c2ncc(N3CCN(CC4=C(c5ccc(Cl)cc5)CC5(CCC5)CC4)CC3)cc2Oc2cnc3[nH]ccc3c2)cc1[N+](=O)[O-]` [compound 31, 3-((1H-pyrrolo[2,3-b]pyridin-5-yl)oxy)-5-(4-((6-(4-chlorophenyl)spiro[3.5]non-6-en-7-yl)methyl)piperazin-1-yl)-N-((4-((2-(2-methoxyethoxy)ethyl)amino)-3-nitrophenyl)sulfonyl)picolinamide] the IC50 [2] was 0.034 µM and the IC50 ([4]; Homo sapiens, MV4-11) was 0.116 µM.

For `COCCn1cc(S(=O)(=O)NC(=O)c2ccc(N3CCN(CC4=C(c5ccc(Cl)cc5)CC5(CCC5)CC4)CC3)cc2Oc2cnc3[nH]ccc3c2)cc1[N+](=O)[O-]` [compound 35, 2-((1H-pyrrolo[2,3-b]pyridin-5-yl)oxy)-4-(4-((6-(4-chlorophenyl)spiro[3.5]non-6-en-7-yl)methyl)piperazin-1-yl)-N-((1-(2-methoxyethyl)-5-nitro-1H-pyrrol-3-yl)sulfonyl)benzamide], the IC50 [2] was 0.611 µM and the IC50 ([4]; Homo sapiens, MV4-11) was 3.6 µM.

In the case of `O=C(NS(=O)(=O)c1ccc(NC[C@H]2COCCO2)c([N+](=O)[O-])c1)c1ccc(N2CCN(CC3=C(c4ccc(Cl)cc4)CC4(CCC4)CC3)CC2)c(F)c1Oc1cnc2[nH]ccc2c1` [compound 36, (S)-N-((4-(((1,4-dioxan-2-yl)methyl)amino)-3-nitrophenyl)sulfonyl)-2-((1H-pyrrolo[2,3-b]pyridin-5-yl)oxy)-4-(4-((6-(4-chlorophenyl)spiro[3.5]non-6-en-7-yl)methyl)piperazin-1-yl)-3-fluorobenzamide], the IC50 [2] is reported as 0.013 µM and the IC50 ([4]; Homo sapiens, MV4-11) is reported as 0.0444 µM.

`COCCOCCNc1ccc(S(=O)(=O)NC(=O)c2cc(F)c(N3CCN(CC4=C(c5ccc(Cl)cc5)CC5(CCC5)CC4)CC3)cc2Oc2cnc3[nH]ccc3c2)cc1[N+](=O)[O-]` [compound 37, 2-((1H-pyrrolo[2,3-b]pyridin-5-yl)oxy)-4-(4-((6-(4-chlorophenyl)spiro[3.5]non-6-en-7-yl)methyl)piperazin-1-yl)-5-fluoro-N-((4-((2-(2-methoxyethoxy)ethyl)amino)-3-nitrophenyl)sulfonyl)benzamide] was tested, and the IC50 [2] was 0.068 µM and the IC50 ([4]; Homo sapiens, MV4-11) was 0.154 µM.

Work on `O=C(NS(=O)(=O)C1=CC2C(=O)N(CC3CCOCC3)CC2C([N+](=O)[O-])=C1)c1ccc(N2CCN(CC3=C(c4ccc(Cl)cc4)CC4(CCC4)CC3)CC2)cc1Oc1cnc2[nH]ccc2c1` (stereo not drawn) [compound 38, 2-((1H-pyrrolo[2,3-b]pyridin-5-yl)oxy)-4-(4-((6-(4-chlorophenyl)spiro[3.5]non-6-en-7-yl)methyl)piperazin-1-yl)-N-((7-nitro-3-oxo-2-((tetrahydro-2H-pyran-4-yl)methyl)-2,3,3a,7a-tetrahydro-1H-isoindol-5-yl)sulfonyl)benzamide] yielded an IC50 [2] of 0.066 µM and an IC50 ([4]; Homo sapiens, MV4-11) of 0.103 µM.

`O=C(NS(=O)(=O)c1ccc(NC[C@H]2COCCO2)c([N+](=O)[O-])c1)c1cc(F)c(N2CCN(CC3=C(c4ccc(Cl)cc4)CC4(CCC4)CC3)CC2)cc1Oc1cnc2[nH]ccc2c1` [compound 39, (S)-N-((4-(((1,4-dioxan-2-yl)methyl)amino)-3-nitrophenyl)sulfonyl)-2-((1H-pyrrolo[2,3-b]pyridin-5-yl)oxy)-4-(4-((6-(4-chlorophenyl)spiro[3.5]non-6-en-7-yl)methyl)piperazin-1-yl)-5-fluorobenzamide] gave an IC50 [2] of 0.031 µM and an IC50 [4] of 0.0337 µM.

`O=C(NS(=O)(=O)c1ccc(NCC2CCOCC2)c([N+](=O)[O-])c1)c1c(F)cc(N2CCN(CC3=C(c4ccc(Cl)cc4)CC4(CCC4)CC3)CC2)cc1Oc1cnc2[nH]ccc2c1` [compound 41, 2-((1H-pyrrolo[2,3-b]pyridin-5-yl)oxy)-4-(4-((6-(4-chlorophenyl)spiro[3.5]non-6-en-7-yl)methyl)piperazin-1-yl)-6-fluoro-N-((3-nitro-4-(((tetrahydro-2H-pyran-4-yl)methyl)amino)phenyl)sulfonyl)benzamide] gave an IC50 [2] of 0.052 µM and an IC50 ([4]; Homo sapiens, MV4-11) of 0.0181 µM.

Work on `O=C(NS(=O)(=O)c1ccc(NCC2CCOCC2)c([N+](=O)[O-])c1)c1ccc(N2CCN(CC3=C(c4ccc(Cl)cc4)CC4(CCC4)CC3)CC2)c(F)c1Oc1cnc2[nH]ccc2c1` [compound 42, 2-((1H-pyrrolo[2,3-b]pyridin-5-yl)oxy)-4-(4-((6-(4-chlorophenyl)spiro[3.5]non-6-en-7-yl)methyl)piperazin-1-yl)-3-fluoro-N-((3-nitro-4-(((tetrahydro-2H-pyran-4-yl)methyl)amino)phenyl)sulfonyl)benzamide] yielded an IC50 [2] of 0.111 µM and an IC50 ([4]; Homo sapiens, MV4-11) of 0.0881 µM.

Work on `COCCOCCNc1ccc(S(=O)(=O)NC(=O)c2ccc(N3CCN(CC4=C(c5ccc(Cl)cc5)CC5(CCC5)CC4)CC3)c(F)c2Oc2cnc3[nH]ccc3c2)cc1[N+](=O)[O-]` [compound 43, 2-((1H-pyrrolo[2,3-b]pyridin-5-yl)oxy)-4-(4-((6-(4-chlorophenyl)spiro[3.5]non-6-en-7-yl)methyl)piperazin-1-yl)-3-fluoro-N-((4-((2-(2-methoxyethoxy)ethyl)amino)-3-nitrophenyl)sulfonyl)benzamide] yielded an IC50 [2] of 0.08 µM and an IC50 ([4]; Homo sapiens, MV4-11) of 0.126 µM.

Work on `O=C(NS(=O)(=O)c1cc([N+](=O)[O-])c2c(cnn2CC2CCOCC2)c1)c1ccc(N2CCN(CC3=C(c4ccc(Cl)cc4)CC4(CCC4)CC3)CC2)cc1Oc1cnc2[nH]ccc2c1` [compound 60, 2-((1H-pyrrolo[2,3-b]pyridin-5-yl)oxy)-4-(4-((6-(4-chlorophenyl)spiro[3.5]non-6-en-7-yl)methyl)piperazin-1-yl)-N-((7-nitro-1-((tetrahydro-2H-pyran-4-yl)methyl)-1H-indazol-5-yl)sulfonyl)benzamide] yielded an IC50 [1] of 0.0675 µM and an IC50 [2] of 0.252 µM.

In the case of `O=C(NS(=O)(=O)c1cc([N+](=O)[O-])c2nn(CC3CCOCC3)cc2c1)c1ccc(N2CCN(CC3=C(c4ccc(Cl)cc4)CC4(CCC4)CC3)CC2)cc1Oc1cnc2[nH]ccc2c1` [compound 61, 2-((1H-pyrrolo[2,3-b]pyridin-5-yl)oxy)-4-(4-((6-(4-chlorophenyl)spiro[3.5]non-6-en-7-yl)methyl)piperazin-1-yl)-N-((7-nitro-2-((tetrahydro-2H-pyran-4-yl)methyl)-2H-indazol-5yl)sulfonyl)benzamide], the IC50 [1] is reported as 0.0131 µM and the IC50 [2] is reported as 0.043 µM.

Work on `O=C(NS(=O)(=O)c1cc([N+](=O)[O-])c2[nH]c(-c3ccncc3)nc2c1)c1ccc(N2CCN(CC3=C(c4ccc(Cl)cc4)CC4(CCC4)CC3)CC2)cc1Oc1cnc2[nH]ccc2c1` [compound 66, 2-((1H-pyrrolo[2,3-b]pyridin-5-yl)oxy)-4-(4-((6-(4-chlorophenyl)spiro[3.5]non-6-en-7 yl)methyl)piperazin-1-yl)-N-((7-nitro-2-(pyridin-4-yl)-1H-benzo[d]imidazol-5-yl)sulfonyl)benzamide] yielded an IC50 [2] of 0.243 µM and an IC50 ([4]; Homo sapiens, MV4-11) of over 1000 µM.
